# “Also recorded” adds a separate entry of the source. Like-named read-outs stand apart in the source and are kept apart here.
# Legend:
# [1] = molecular target: T1, histamine H1 (guinea-pig ileum) (Cavia porcellus, UniProt P31389); assay: Histamine H1-activity, guinea-pig ileum
# T1 construct: from tissue; host or cells: guinea-pig ileum (isolated organ)
# From the text: (§1) The values for the H1 -activity given are the mean of at least two experiments in quadruplicate, while the values for the H2 -activity result from at least two experiments in duplicate.
# [2] = molecular target: T2, histamine H2 (guinea-pig right atrium) (Cavia porcellus, UniProt P47747); assay: Histamine H2-activity, guinea-pig right atrium
# T2 construct: from tissue; host or cells: guinea-pig right atrium (isolated organ)
# From the text: as §1
# (§2) Guinea-pig right atrium H2
# (§3) Ther., 19, 545-550 (1984).
# [3] = molecular target: T3, histamine H2 (guinea-pig gastric fundus) (Cavia porcellus, UniProt P47747); assay: Histamine H2-activity, acid secretion of the isolated gastric fundus of the guinea-pig
# T3 construct: acid secretion of the isolated gastric fundus of the guinea-pig; from tissue; host or cells: guinea-pig gastric fundus (isolated organ)
# From the text: as §1
# (§4) Guinea-pig gastric acid secretion (H2)
# histamine H1 = molecular target: T4, histamine H1 (Cavia porcellus, UniProt P31389); assay: Histamine H1-activity, overall discussion (ileum/trachea); set-up: species or system guinea-pig; conditions: structure-activity discussion
# T4 construct: functional contraction
# Method: The results of pharmacological tests with said new compounds are summarized in Table A (H1 -activity) and Table B (H2 -activity). The values for the H1 -activity given are the mean of at least two experiments in quadruplicate, while the values for the H2 -activity result from at least two experiments in duplicate.
# (§5) Male guinea-pigs (350-500 g) were killed by a blow on the head and the trachea removed. Single segments were cut from the trachea, loaded with 0.4 g and placed in an organ bath (35° C.) containing 120 mM NaCl, 6 mM KCl, 1 mM MgSO4, 2.5 mM CaCl2, 1 mM NaH2 PO4, […] and 6 mM glucose. The organ bath was gassed with oxygen containing 5% CO2. PD2, intrinsic acitivity and antagonistic activity of the test compounds were determined from isotonically recorded, cumulative dose-response curves.
# histamine H2 [4] = molecular target: T5, histamine H2 (Cavia porcellus, UniProt P47747); assay: Histamine H2-activity, overall discussion (atrium/gastric fundus); set-up: species or system guinea-pig; conditions: atrium and fundus; structure-activity discussion
# T5 construct: functional chronotropy and acid secretion
# From the text: as §1, §2, §3, §4
# [5] = molecular target: T6, histamine H1 (guinea-pig trachea) (Cavia porcellus, UniProt P31389); assay: Histamine H1-activity, guinea-pig trachea; conditions: for Kb: ± 0,2, mean of at least two experiments in quadruplicate
# T6 construct: Single segments were cut from the trachea; from tissue; host or cells: guinea-pig trachea (isolated segments)
# Method: as §1, §5
# histamine H2 [6] = conditions: cited from earlier work
# [7] = guinea-pig ileum, ±0,2, mean of at least two experiments in quadruplicate
# [8] = guinea-pig right atrium, ±0,1, at least two experiments in duplicate
# [9] = read-out: Histamine H2-activity, α (intrinsic activity), guinea-pig right atrium, at least two experiments in duplicate
# [10] = guinea-pig gastric fundus, ±0,2, at least two experiments in duplicate
# [11] = read-out: Histamine H2-activity, α (intrinsic activity), guinea-pig gastric fundus, at least two experiments in duplicate
# [12] = guinea pig, read-out: Histamine H2-activity, atrium, α (intrinsic activity)
# [13] = guinea pig, read-out: Histamine H2-activity, gastric fundus, α (intrinsic activity)
# [14] = gastric fundus, versus compound I
# T4 sequence (P31389 whole entry): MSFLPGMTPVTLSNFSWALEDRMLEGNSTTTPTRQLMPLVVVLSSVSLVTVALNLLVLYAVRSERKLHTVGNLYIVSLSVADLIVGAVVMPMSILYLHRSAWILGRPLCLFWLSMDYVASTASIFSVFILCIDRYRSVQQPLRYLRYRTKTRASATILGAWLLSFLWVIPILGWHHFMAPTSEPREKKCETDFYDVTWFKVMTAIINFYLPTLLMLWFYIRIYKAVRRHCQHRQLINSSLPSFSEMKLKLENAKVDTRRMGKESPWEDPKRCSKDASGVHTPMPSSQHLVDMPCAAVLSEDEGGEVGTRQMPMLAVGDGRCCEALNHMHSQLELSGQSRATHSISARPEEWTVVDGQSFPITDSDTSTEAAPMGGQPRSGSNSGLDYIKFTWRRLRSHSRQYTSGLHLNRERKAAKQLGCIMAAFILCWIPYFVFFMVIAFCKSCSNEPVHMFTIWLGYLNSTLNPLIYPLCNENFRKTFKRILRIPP
# T1 sequence (P31389 whole entry): as above
# T6 sequence (P31389 whole entry): as above
# T3 sequence (P47747 whole entry): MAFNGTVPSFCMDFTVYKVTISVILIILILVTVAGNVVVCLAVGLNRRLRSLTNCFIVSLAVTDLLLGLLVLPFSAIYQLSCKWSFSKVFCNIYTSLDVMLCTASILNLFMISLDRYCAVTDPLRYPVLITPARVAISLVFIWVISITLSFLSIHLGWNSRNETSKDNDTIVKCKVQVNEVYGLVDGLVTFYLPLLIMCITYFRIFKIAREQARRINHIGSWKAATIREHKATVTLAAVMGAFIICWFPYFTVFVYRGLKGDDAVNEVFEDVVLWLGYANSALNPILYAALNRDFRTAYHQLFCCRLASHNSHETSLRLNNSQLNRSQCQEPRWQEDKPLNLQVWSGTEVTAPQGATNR
# T5 sequence (P47747 whole entry): as above
# T2 sequence (P47747 whole entry): as above
Compound,"Kb [1, 7] [nM]","EC50 [2, 8] [nM]","Emax [2, 9] [%]","EC50 [3, 10] [nM]","Emax [3, 11] [%]","H1-activity, comparison in words (histamine H1)","H2-activity, comparison in words (histamine H2 [4])",Kb ([5]; guinea-pig trachea) [nM],also measured
"N=C(NCCCc1c[nH]cn1)NCCSC(c1ccccc1)c1ccccc1 [Compound I, N-[2-(diphenylmethylthio)ethyl]-N'-[3-(imidazol-4-yl)propyl] guanidine]",316,158,100,794,100,,,,"H2-activity on the atrium, comparison in words ([2]; guinea-pig right atrium): most potent compounds of this series on the guinea-pig right atrium; decrease in H2-agonism, fundus, versus compound XII ([3]; fundus, extra phenyl group in compound XII): 32 fold"
"N=C(NCCCc1c[nH]cn1)NCCC(c1ccccc1)c1ccccc1 [Compound IX, N-(3.3-diphenylpropyl)-N'-[3-(imidazol-4-yl)propyl]guanidine]",501,20,100,,,Analogous results; also recorded: almost as potent H1 -antagonists as compound I,Analogous results,,"H2-activity on the atrium, comparison in words ([2]; guinea-pig right atrium): remarkable high potency on the guinea-pig right atrium; also recorded: almost as potent as impromidine on the atrium; also recorded: most potent compounds of this series on the guinea-pig right atrium"
"N=C(NCCCc1c[nH]cn1)NCCSC(c1ccccc1)c1ccc(F)cc1 (stereo not drawn) [Compound VI, N-[2-(α-phenyl-4-fluorobenzylthio)ethyl]-N'-[3-(imidazol-4-yl)propyl]guanidine]",251,1260,80,3160,40,only little or no effect at all on the H1 -antagonism,strong decrease in H2 -activity,158,
"Cc1ccccc1C(SCCNC(=N)NCCCc1c[nH]cn1)c1ccccn1 (stereo not drawn) [Compound VII, N-[3-(imidazol-4-yl)propyl]-N'-(2-[2-methyl-alpha-(2-pyridyl)benzylthio]ethyl)guanidine]",398,1260,80,,,almost as potent H1 -antagonists as compound I,almost as potent H2 -antagonist as the para methyl and fluoro analogues,1000,
Cc1ccc(C(SCCNC(=N)NCCc2c[nH]cn2)c2ccccc2)cc1 (stereo not drawn) [Compound V],251,100000,0,100000,0,Analogous results; also recorded: only little or no effect at all on the H1 -antagonism,Analogous results; also recorded: strong decrease in H2 -activity,,
"N=C(NCCCc1c[nH]cn1)NCCN(Cc1ccccc1)c1ccccc1 [Compound XI, N-[2-(N'-benzyl-N'-phenylamino)ethyl]-N""-[3-(imidazol-4-yl)propyl]guanidine]",25.1,398,100,316,70,slightly more potent H1 -antagonist than the oxygen analogue compound II; also recorded: most potent H1 -antagonists of this series of impromidine analogues,,15.8,"potency relative to histamine on the atrium, in words ([2]; atrium): about twice as potent as histamine on the atrium; activity relative to impromidine, atrium ([2]; atrium, % of the activity of impromidine): about 4%; activity relative to impromidine, gastric fundus ([3]; gastric fundus, % of the activity of impromidine): about 1%; activity relative to histamine, gastric fundus ([3]; gastric fundus, times the activity of histamine): 10 times"
N=C(NCC=C(c1ccccc1)c1ccccc1)NCCCc1c[nH]cn1 [Compound X],200,100,100,2510,90,almost as potent H1 -antagonists as compound I,,631,"decrease in H2-activity, atrium, on introduction of a double bond ([2]; atrium, introduction of a double bond (saturated analogue: IX)): 4 fold; H2-activity on the atrium, comparison in words ([2]; guinea-pig right atrium): most potent compounds of this series on the guinea-pig right atrium"
"NCCc1c[nH]cn1 [Histamine, reference compound]",,,,,,,,,"Emax [2, 12]: 100%; Emax [3, 13]: 100%"
"N=C(NCCSC(c1ccccc1)c1ccccc1)NCCc1c[nH]cn1 [II, N-[2-(diphenylmethylthio)ethyl]-N'-[2-imidazol-4-yl)ethyl guanidine]",,,,,,no effect on the H1 -activity,"marked decrease in H2 -activity, both on the atrium and on the fundus",,"Kb [1]: 398 nM; EC50 [2]: 15800 nM; Emax [2, 12]: 80%; EC50 [3]: 12600 nM; Emax [3, 13]: 50%"
"N=C(NCCCc1c[nH]cn1)NCCOC(c1ccccc1)c1ccccc1 [III, N-[2-(diphenylmethoxy)ethyl]-N'-[3-(imidazol-4-yl)propyl] guanidine]",31.6,3160,90,1580,40,most potent H1 -antagonists of this series of impromidine analogues,,25.1,"H1 potency relative to the starting compound, ileum ([1]; guinea-pig ileum, versus sulphur starting compound (I)): ten times as potent as the starting compound; H1 potency relative to the starting compound, trachea ([5]; guinea-pig trachea, versus sulphur starting compound (I)): 25 times; decrease in H2-agonism, atrium, versus compound I ([2]; atrium, sulphur of compound I replaced by oxygen): 20 fold; change in intrinsic activity on the gastric fundus, in words [3, 14]: remarkable decrease in intrinsic activity; change in pD2 on the gastric fundus, in words [3, 14]: less pronounced"
"Cc1ccc(C(SCCNC(=N)NCCCc2c[nH]cn2)c2ccccc2)cc1 (stereo not drawn) [IV, N-[3-(imidazol-4-yl)propyl]-N'-2-[α-phenyl-4-methylbenzylthio]ethyl guanidine]",398,1260,80,,,only little or no effect at all on the H1 -antagonism,strong decrease in H2 -activity,,
"Cc1[nH]cnc1CSCCNC(=N)NCCCc1c[nH]cn1 [Impromidine, N-[2-(5-methylimidazol-4-ylmethylthio)ethyl]-N'-[3-(imidazol-4-yl)propyl]guanidine, reference compound]",,,,,,,,,"Kb [1]: 3160 nM; EC50 [3]: 3.16 nM; Emax [3, 13]: 100%; potency relative to histamine (histamine H2 [6]; dependent on the used test system, Proc. VIIIth Internat. Symp. Med. Chem. Uppsala 1985): 5-800 times; stimulation of gastric acid secretion, in words (histamine H2 [6]; drawback for clinical use): relatively high potency in stimulating the gastric acid secretion; histamine H2-agonist character, in words (histamine H2 [6]; literature): specific and the most potent histamine H2 -agonist; also recorded: either behaves like a partial or like a complete agonist"
"N=C(NCCc1c[nH]cn1)NCCC(c1ccccc1)c1ccccc1 [VIII, N-(3.3-diphenylpropyl)-N'-[2-(imidazol-4-yl)ethyl] guanidine]",631,2510,90,10000,0,almost as potent H1 -antagonists as compound I,,,"H2-activity on the atrium, comparison in words ([2]; guinea-pig right atrium): remarkable high potency on the guinea-pig right atrium"
"NC(=NCCCc1c[nH]cn1)NCCSCc1ccccc1 [XII, reference compound]",3160,63.1,100,25.1,100,no change in H1 -activity,,,"decrease in H2-activity, atrium, versus impromidine ([2]; guinea-pig atrium, 5-methylimidazole of impromidine replaced by phenyl): 4 fold; decrease in H2-activity, gastric fundus, versus impromidine ([3]; gastric fundus, 5-methylimidazole of impromidine replaced by phenyl): 8 fold"
"CN(C)CCCSC(=N)N [dimaprit, reference compound]",,,,,,,,,effect on resting state and histamine induced contractions of the trachea ([5]; up to 10^-3 M): neither effect on the resting state of the organ nor on the histamine induced contractions

# Reference: US5010095A, “N-(W-substituted alkyl)-'-(imidazol-4-yl)alkyl)guanidine” (Cedona Pharmaceuticals B.V., priority 1986, dated 1991)
